From PubChem BioAssay AID2060625 (Molecular Pharmacology Branch, DTP, NCI, 2025)

System: 186277-243-T-J2-PDC spheroids with HUVEC/MSC, viability
Assay: Anticancer human tumor 186277-243-T-J2-PDC patient-derived colon adenocarcinoma cell line growth inhibition [CLK]
Conditions: for IC50: curve of first compound; for viability, T/C: stronger effect = lower value
Procedure, shortened: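 Patient-derived tumor cells grown as complex spheroids with HUVEC endothelial cells and mesenchymal stem cells, treated with drug combinations. Concentrations descend in half-log steps from near clinical Cmax, or from 10 microM if Cmax unknown.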

[1] = second compound 0.0316 µM, first compound 0.0316 µM
[2] = second compound 0.0316 µM, first compound 0.1 µM
[3] = second compound 0.0316 µM, first compound 0.316 µM
[4] = second compound 0.0316 µM, first compound 1 µM
[5] = second compound 0.0316 µM, first compound 3.16 µM
[6] = second compound 0.0316 µM, first compound 10 µM
[7] = second compound 0.1 µM, first compound 0.0316 µM
[8] = second compound 0.1 µM, first compound 0.1 µM
[9] = second compound 0.1 µM, first compound 0.316 µM
[10] = second compound 0.1 µM, first compound 1 µM
[11] = second compound 0.1 µM, first compound 3.16 µM
[12] = second compound 0.1 µM, first compound 10 µM
[13] = second compound 0.316 µM, first compound 0.0316 µM
[14] = second compound 0.316 µM, first compound 0.1 µM
[15] = second compound 0.316 µM, first compound 0.316 µM
[16] = second compound 0.316 µM, first compound 1 µM
[17] = second compound 0.316 µM, first compound 3.16 µM
[18] = second compound 0.316 µM, first compound 10 µM
[19] = second compound 1 µM, first compound 0.0316 µM
[20] = second compound 1 µM, first compound 0.1 µM
[21] = second compound 1 µM, first compound 0.316 µM
[22] = second compound 1 µM, first compound 1 µM
[23] = second compound 1 µM, first compound 3.16 µM
[24] = second compound 1 µM, first compound 10 µM
[25] = second compound 3.16 µM, first compound 0.0316 µM
[26] = second compound 3.16 µM, first compound 0.1 µM
[27] = second compound 3.16 µM, first compound 0.316 µM
[28] = second compound 3.16 µM, first compound 1 µM
[29] = second compound 3.16 µM, first compound 3.16 µM
[30] = second compound 3.16 µM, first compound 10 µM
[31] = second compound 10 µM, first compound 0.0316 µM
[32] = second compound 10 µM, first compound 0.1 µM
[33] = second compound 10 µM, first compound 0.316 µM
[34] = second compound 10 µM, first compound 1 µM
[35] = second compound 10 µM, first compound 3.16 µM
[36] = second compound 10 µM, first compound 10 µM
[37] = second compound 0.0316 µM, first compound 0.00316 µM
[38] = second compound 0.0316 µM, first compound 0.01 µM
[39] = second compound 0.1 µM, first compound 0.00316 µM
[40] = second compound 0.1 µM, first compound 0.01 µM
[41] = second compound 0.316 µM, first compound 0.00316 µM
[42] = second compound 0.316 µM, first compound 0.01 µM
[43] = second compound 1 µM, first compound 0.00316 µM
[44] = second compound 1 µM, first compound 0.01 µM
[45] = second compound 3.16 µM, first compound 0.00316 µM
[46] = second compound 3.16 µM, first compound 0.01 µM
[47] = second compound 10 µM, first compound 0.00316 µM
[48] = second compound 10 µM, first compound 0.01 µM
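Further: compound exposure lasted seven days before readout.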
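Wherever viability, T/C is given: 100% = DMSO vehicle control wells.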

CC(CO)NC(=O)c1cc(-c2ccc(Cl)cc2)nn(-c2cnn(C)c2)c1=O (stereo not drawn) + CNC(=O)c1ccc(Nc2nc(OC3CCCC3)c3c(-c4ccc5nc(C)oc5c4)c[nH]c3n2)c(OC)c1
IC50 (second compound 0.0316 µM): > 10000 nM | IC50 (second compound 0.1 µM): > 10000 nM | IC50 (second compound 0.316 µM): < 31.6 nM | IC50 (second compound 1 µM): < 31.6 nM | IC50 (second compound 3.16 µM): < 31.6 nM | IC50 (second compound 10 µM): < 31.6 nM | viability, T/C [1]: 109% | viability, T/C [2]: 99.1% | viability, T/C [3]: 101% | viability, T/C [4]: 84.7% | viability, T/C [5]: 105% | viability, T/C [6]: 120% | viability, T/C [7]: 75.8% | viability, T/C [8]: 70.5% | viability, T/C [9]: 72.3% | viability, T/C [10]: 71.8% | viability, T/C [11]: 74% | viability, T/C [12]: 81.5% | viability, T/C [13]: 50% | viability, T/C [14]: 45.4% | viability, T/C [15]: 43.1% | viability, T/C [16]: 49% | viability, T/C [17]: 49.6% | viability, T/C [18]: 47.8% | viability, T/C [19]: 28.9% | viability, T/C [20]: 31.6% | viability, T/C [21]: 29.6% | viability, T/C [22]: 32.4% | viability, T/C [23]: 35.6% | viability, T/C [24]: 36% | viability, T/C [25]: 33.3% | viability, T/C [26]: 30.7% | viability, T/C [27]: 29.1% | viability, T/C [28]: 31.7% | viability, T/C [29]: 32% | viability, T/C [30]: 35% | viability, T/C [31]: 32.5% | viability, T/C [32]: 31.4% | viability, T/C [33]: 32% | viability, T/C [34]: 31.4% | viability, T/C [35]: 34.3% | viability, T/C [36]: 31.5%

CC(Nc1ccc2c(c1)OCCn1cc(N3C(=O)OCC3C(F)F)nc1-2)C(N)=O (stereo not drawn) + CNC(=O)c1ccc(Nc2nc(OC3CCCC3)c3c(-c4ccc5nc(C)oc5c4)c[nH]c3n2)c(OC)c1
IC50 (second compound 0.0316 µM): 1790 nM | IC50 (second compound 0.1 µM): 41.7 nM | IC50 (second compound 0.316 µM): < 31.6 nM | IC50 (second compound 1 µM): < 31.6 nM | IC50 (second compound 3.16 µM): < 31.6 nM | IC50 (second compound 10 µM): < 31.6 nM | viability, T/C [1]: 86.1% | viability, T/C [2]: 93.9% | viability, T/C [3]: 63.2% | viability, T/C [4]: 57.6% | viability, T/C [5]: 46.6% | viability, T/C [6]: 30.5% | viability, T/C [7]: 53.9% | viability, T/C [8]: 39.9% | viability, T/C [9]: 35.2% | viability, T/C [10]: 29.4% | viability, T/C [11]: 20.1% | viability, T/C [12]: 14.7% | viability, T/C [13]: 30.4% | viability, T/C [14]: 24.3% | viability, T/C [15]: 16.9% | viability, T/C [16]: 11.4% | viability, T/C [17]: 10.2% | viability, T/C [18]: 7.7% | viability, T/C [19]: 20.6% | viability, T/C [20]: 16.4% | viability, T/C [21]: 12.4% | viability, T/C [22]: 11.2% | viability, T/C [23]: 7.78% | viability, T/C [24]: 6.87% | viability, T/C [25]: 20.8% | viability, T/C [26]: 15% | viability, T/C [27]: 11.1% | viability, T/C [28]: 10.6% | viability, T/C [29]: 7.84% | viability, T/C [30]: 5.24% | viability, T/C [31]: 24.5% | viability, T/C [32]: 19.6% | viability, T/C [33]: 10.9% | viability, T/C [34]: 9.69% | viability, T/C [35]: 6.97% | viability, T/C [36]: 4.12%

CCN1CCN(Cc2ccc(Nc3ncc(F)c(-c4cc(F)c5nc(C)n(C(C)C)c5c4)n3)nc2)CC1 + CNC(=O)c1ccc(Nc2nc(OC3CCCC3)c3c(-c4ccc5nc(C)oc5c4)c[nH]c3n2)c(OC)c1
IC50 (second compound 0.0316 µM): > 1000 nM | IC50 (second compound 0.1 µM): > 1000 nM | IC50 (second compound 0.316 µM): > 1000 nM | IC50 (second compound 1 µM): < 3.16 nM | IC50 (second compound 3.16 µM): < 3.16 nM | IC50 (second compound 10 µM): < 3.16 nM | viability, T/C [37]: 123% | viability, T/C [38]: 101% | viability, T/C [1]: 148% | viability, T/C [2]: 116% | viability, T/C [3]: 125% | viability, T/C [4]: 117% | viability, T/C [39]: 92.7% | viability, T/C [40]: 98.5% | viability, T/C [7]: 104% | viability, T/C [8]: 103% | viability, T/C [9]: 114% | viability, T/C [10]: 104% | viability, T/C [41]: 59% | viability, T/C [42]: 64.3% | viability, T/C [13]: 71.6% | viability, T/C [14]: 78.8% | viability, T/C [15]: 76.5% | viability, T/C [16]: 74.8% | viability, T/C [43]: 41.8% | viability, T/C [44]: 47.8% | viability, T/C [19]: 48.3% | viability, T/C [20]: 60.5% | viability, T/C [21]: 58.1% | viability, T/C [22]: 61.5% | viability, T/C [45]: 39.1% | viability, T/C [46]: 39.2% | viability, T/C [25]: 45.2% | viability, T/C [26]: 47% | viability, T/C [27]: 51.9% | viability, T/C [28]: 59.6% | viability, T/C [47]: 41% | viability, T/C [48]: 39.9% | viability, T/C [31]: 46.5% | viability, T/C [32]: 43.4% | viability, T/C [33]: 47.8% | viability, T/C [34]: 46.9%

COc1c(OCCCN2CCOCC2)ccc2c3n(c(=NC(=O)c4cnc(N)nc4)nc12)CCN3 + CNC(=O)c1ccc(Nc2nc(OC3CCCC3)c3c(-c4ccc5nc(C)oc5c4)c[nH]c3n2)c(OC)c1
IC50 (second compound 0.0316 µM): 29.9 nM | IC50 (second compound 0.1 µM): < 3.16 nM | IC50 (second compound 0.316 µM): < 3.16 nM | IC50 (second compound 1 µM): < 3.16 nM | IC50 (second compound 3.16 µM): < 3.16 nM | IC50 (second compound 10 µM): < 3.16 nM | viability, T/C [37]: 86.7% | viability, T/C [38]: 93.3% | viability, T/C [1]: 47.4% | viability, T/C [2]: 20% | viability, T/C [3]: 13.3% | viability, T/C [4]: 7.3% | viability, T/C [39]: 49.4% | viability, T/C [40]: 42.1% | viability, T/C [7]: 23.9% | viability, T/C [8]: 9.52% | viability, T/C [9]: 9.27% | viability, T/C [10]: 5.48% | viability, T/C [41]: 29.3% | viability, T/C [42]: 22.8% | viability, T/C [13]: 12.3% | viability, T/C [14]: 6.69% | viability, T/C [15]: 6.54% | viability, T/C [16]: 3.73% | viability, T/C [43]: 17.2% | viability, T/C [44]: 14.2% | viability, T/C [19]: 9.1% | viability, T/C [20]: 6.05% | viability, T/C [21]: 5.94% | viability, T/C [22]: 2.82% | viability, T/C [45]: 17% | viability, T/C [46]: 15% | viability, T/C [25]: 8.99% | viability, T/C [26]: 4.81% | viability, T/C [27]: 4.85% | viability, T/C [28]: 1.73% | viability, T/C [47]: 21% | viability, T/C [48]: 14.5% | viability, T/C [31]: 6.54% | viability, T/C [32]: 6.2% | viability, T/C [33]: 3.21% | viability, T/C [34]: 2.06%
